Data: patent US20120258960A1, “NOVEL MULTIFUNCTIONAL PEPTIDASE INHIBITORS, ESPECIALLY FOR MEDICAL USE” (IMTM GMBH, priority 2009, published 2012)

Legend:
Sprague-Dawley rats = assay: Infarct volume after transient focal cerebral ischemia (endothelin 1-induced middle cerebral artery occlusion, eMCAO); format: in vivo; conditions: cortex, 7 days after eMCAO, % of vehicle control (100%), mean ± S.E.M.; 2 μl of 10 mmol/l intracerebroventricularly during ischemia, 6 and 24 h after reperfusion
Procedure: Studies were performed on male Sprague-Dawley rats (250 to 280 g) obtained from Harlan Winkelmann (Borchen, Germany). The animals were maintained under constant environmental conditions with ambient temperature of 21±2° C. and relative humidity of 40%. They were housed with a 12-h light-dark cycle and given food and water ad libitum.
For stock solution of the compounds, a compound determined for use in the study (25 mmol) was dissolved in dimethyl sulfoxide (DMSO, SigmaAldrich, Germany) and diluted with 0.1 M phosphate buffer saline (PBS, pH 7.4) to a final volume of 10 mmol/l. 2 μl of a 10 mmol/l test compound PBS/DMSO solution was administered intra-cerebroventricularly at different time points after the induction of transient focal cerebral ischemia. If not otherwise stated, all other chemicals were of highest available purity.
The procedure for the induction of transient focal cerebral ischemia by occlusion of the middle cerebral artery via microinjection of endothelin 1 adjacent to the middle cerebral artery was modified from that published previously by Sharkey and Butcher, 1995. Anesthesia was induced with halothane in a mixture of nitrous oxide/oxygen (70:30, v/v) and maintained with 2 to 3% halothane during the following procedures. Rats were placed in a Kopf stereotaxic frame and further anesthetized via nose cone. For the induction of focal cerebral ischemia, a burr hole was drilled (1 mm diameter) into the skull (coordinates: anterior 0.90 mm from bregma, lateral 5.2 mm to satura sagittalis), and the dura was carefully opened. A 29-gauge cannula was lowered 7.5 mm below the dura according to the rat brain atlas of Paxinos and Watson (31). To induce occlusion of the middle cerebral artery, rats received an injection of […] of endothelin 1 (ED-1, Sigma-Aldrich) in 3 μl of 0.1 M phosphate-buffered saline, pH 7.4, over a time period of 5 min. After a further 5 min, the cannula was slowly withdrawn.
For intracerebroventricular application of the compounds selected, a second burr hole was drilled into the skull (coordinates: posterior 0.80 mm from bregma, lateral 1.5 mm to satura sagittalis), and a second 29-gauge cannula was lowered 4.5 mm below the dura. Intracerebroventricular applications of selected compounds (2 μl of a 10 mmol/l PBS/DMSO solution, pH 7.4) were performed during ischemia, 6 and 24 h after reperfusion.
After a survival time of 7 days after endothelin-induced middle cerebral artery occusion (eMCAO), animals were anesthetized by an intraperitonial injection of pentobarbital and perfusion-fixed transcardially with saline, followed by 4% paraformaldehyde in 0.1 M phosphate buffer saline, pH 7.4. Brains were then removed carefully, post-fixed in the same fixative for 2 h, and placed in a rodent brain matrix (rat, Activational Systems Inc., Scientific Instrumentation). 1-mm coronal brain slices were cut with a razor blade at 14 predetermined anterior-posterior levels. After cryoprotection in 30% sucrose, slices were rapidly frozen in isopentane and stored at −80° C. Four to five cryostat sections (30 μm) from each brain slice were cut in a cryo microtome and stained with toluidine blue.
The extent of cortical damage following ischemic injury was documented with microphotographic images from the Nissl-stained slices showing the anterior-posterior level according to the brain atlas of Paxinos and Watson (31). The volume of cortical infarct was determined by an operator blinded to the group composition.
The extent of the infarct area at each level was calculated by integrating of the area of damage at each stereotactic level and the distances between the various levels. Using a light microscope (Nikon, Eclipse TE 3000) equipped with a 4× objective, the image analysis was performed with a computer-assisted image analysis system (Lucia software, Version 4.2.1).
The data were statistically analyzed by non-paired Student's t tests. […]

T lymphocytes = assay: Inhibition of proliferation of PHA-stimulated T lymphocytes (tritium thymidine incorporation); format: cell-based; conditions: Homo sapiens, T-lymphocyte, 1 μg/ml Phytohemagglutinine, 48 hours, test compounds 0.1-250 μM, read-out: T cells IC50
Procedure: (§1) Peripheral blood mononuclear cells (PBMC) from healthy human volunteers were freshly isolated by density gradient centrifugation. T lymphocytes (T cells, Tc) were isolated from PBMC fractions via nylon wool adherence. Cells were cultured in standard cell culture media and stimulated by addition of 1 μg/ml Phytohemagglutinine for 48 hours in 96 well flat-bottom microtitre plates. Test compounds were added at concentration ranges from 0.1-250 μM over the total assay period.
DNA synthesis of proliferating T cells was determined by incorporation of radio labelled tritium thymidine and subsequent radio detection.
(§2) Data output was based on raw data and calculation of relative proliferation response in relation to PHA-activated T cells in the absence of test compound (100% control).
(§3) The […] value of proliferation suppression was assessed by graphical evaluation.

[1] = test system: human peripheral blood mononuclear cells; assay: Inhibition of proliferation of PHA-stimulated mononuclear cells (BrdU incorporation); format: cell-based; conditions: PBMC, 1 μg/ml Phytohemagglutinine, 48 hours, test compounds 0.1-250 μM, read-out: MNC IC50
Procedure: as §1
DNA synthesis of proliferating PBMC was assessed by incorporation of nucleotide analogue bromdesoxyuridine (BrdU) and subsequent detection of optical density (OD) at 450 nm.
as §2, §3

| Structure (SMILES) | Infarct Volume (%) (Sprague-Dawley rats) | IC50 (T lymphocytes) [µM] | IC50 [1] [µM] |
| --- | --- | --- | --- |
| NC(CC(=O)NC1CCCC(NC(=O)C(O)C(N)Cc2ccccc2)C1)Cc1cc(F)ccc1F (stereo not drawn) [drawing 291] | 64.2 ± 14.6 |  |  |
| CC(C)(CNCC(N)Cc1cc(F)ccc1F)CNC(=O)C(O)C(N)Cc1ccccc1 (stereo not drawn) [drawing 292] | 59.9 ± 16.1 |  |  |
| CC(C)(NC(=O)CC(N)Cc1ccccc1)C(C)(C)NC(=O)C(O)C(N)Cc1ccccc1 (stereo not drawn) [drawing 286] | 70.7 ± 6.1 |  |  |
| CCCCCCCCCCCCCCCC(=O)OC(C(=O)NCC(C)(C)CNC(=O)CC(N)Cc1cc(F)ccc1F)C(N)Cc1ccccc1 (stereo not drawn) [drawing 288] | 58.6 ± 19.7 |  |  |
| CC(C)(CNC(=O)CC(N)Cc1cc(F)ccc1F)CNC(=O)C(O)C(N)Cc1ccccc1 (stereo not drawn) [drawing 232] |  | ≥ 200 | 200 |
| NC(CC(=O)NCCCCNC(=O)C(O)C(N)Cc1ccccc1)Cc1cc(F)ccc1F (stereo not drawn) [drawing 287] | 73.5 ± 5.7 |  |  |
| CC(C)(CNC(=O)CC(N)Cc1cc(F)ccc1F)CNC(=O)C(O)C(N)Cc1ccc(-c2ccsc2)cc1 (stereo not drawn) [drawing 280] |  | 6.3 | 4.6 |
| CC(C)(CNC(=O)CC(CN)Cc1ccccc1)CNC(=O)C(O)C(N)Cc1ccccc1 (stereo not drawn) [drawing 240] |  | 60.7 | 64.4 |
| CC(C)(CNC(=O)CC(N)Cc1cc(F)ccc1F)CNC(=O)C(O)C(N)Cc1ccc(-c2cccnc2)cc1 (stereo not drawn) [drawing 282] |  | 64.9 | 31.4 |
| CCCCCCCCCCCC(=O)OC(C(=O)NCC(C)(C)CNC(=O)CC(N)Cc1cc(F)ccc1F)C(N)Cc1ccccc1 (stereo not drawn) [drawing 253] |  | 2 | 1.7 |
| CCCCCCCCCCCCCCCC(=O)NC(CC(=O)NCC(C)(C)CNC(=O)C(O)C(Cc1ccccc1)NC(=O)CCCCCCCCCCCCCCC)Cc1cc(F)ccc1F (stereo not drawn) [drawing 290] | 75.6 ± 16.6 |  |  |
| CC(C)(CCNC(=O)CC(N)Cc1cc(F)ccc1F)CNC(=O)C(O)C(N)Cc1ccccc1 (stereo not drawn) [drawing 242] |  | 157 | 63.3 |
| CCCCCCCCCCCCCC(=O)NC(CC(=O)NCC(C)(C)CNC(=O)C(O)C(Cc1ccccc1)NC(=O)CCCCCCCCCCCCC)Cc1cc(F)ccc1F (stereo not drawn) [drawing 289] | 60.7 ± 17.1 |  |  |
| CCCCCCCCCCCCCCCC(=O)NC(CC(=O)NCC(C)(C)CNC(=O)C(O)C(Cc1ccccc1)NC(=O)CCCCCCCCCCCCCCC)Cc1cc(F)ccc1F (stereo not drawn) [drawing 268] |  | 97.5 | 200 |
| NC(CC(=O)NCCCNC(=O)C(O)C(N)Cc1ccccc1)Cc1cc(F)ccc1F (stereo not drawn) [drawing 237] |  | 70 | 122 |
| NC(CNC(=O)c1cccc(NC(=O)C(O)C(N)Cc2ccc(-c3cccnc3)cc2)c1)Cc1cc(F)ccc1F (stereo not drawn) [drawing 285] |  | 24.3 | 37.8 |
| NC(CC(=O)NCC1(CNC(=O)C(O)C(N)Cc2ccccc2)CCC1)Cc1cc(F)ccc1F (stereo not drawn) [drawing 263] |  | 19.2 | 29.9 |
| CC(C)(CNC(=O)CC(N)Cc1cc(F)ccc1F)CNC(=O)C(O)C(N)Cc1ccc(-c2cncnc2)cc1 (stereo not drawn) [drawing 283] |  | 96.1 | 70 |
| CN(CCCN(C)C(=O)C(O)C(N)Cc1ccccc1)C(=O)CC(N)Cc1cc(F)ccc1F (stereo not drawn) [drawing 238] |  | 70 | 122 |
| CN(CCCNC(=O)OCc1ccccc1)C(=O)C(O)C(N)Cc1ccccc1 (stereo not drawn) [drawing 278] |  | ≥ 200 | 149 |
